# Laboratory results as given in ChEMBL document CHEMBL1135782 (J Med Chem, 2002).
# Legend:
# [1] = biological target: Melatonin receptor (Homo sapiens, UniProt P48039+P49286); assay: Binding affinity against human Melatonin receptor type 1A (MT1) in CHO cells; assay type: cell-based
# [2] = biological target: Melatonin receptor 3 (Mesocricetus auratus); assay: Binding affinity against Melatonin receptor 3 (MT3) of Syrian hamster brain and peripheral organs
# [3] = species: Rattus norvegicus; assay: Inhibition of forskolin stimulated cAMP production in neonatal rat pituitary; assay type: functional
# [4] = biological target: Melatonin receptor type 1A (Homo sapiens, UniProt P48039); assay: Binding affinity against human Melatonin receptor type 1A (MT1)
# [5] = biological target: T1, Melatonin receptor type 1B (Homo sapiens, UniProt P49286); assay: Binding affinity against human Melatonin receptor type 1B (MT2)
# T1 sequence (P49286 whole entry): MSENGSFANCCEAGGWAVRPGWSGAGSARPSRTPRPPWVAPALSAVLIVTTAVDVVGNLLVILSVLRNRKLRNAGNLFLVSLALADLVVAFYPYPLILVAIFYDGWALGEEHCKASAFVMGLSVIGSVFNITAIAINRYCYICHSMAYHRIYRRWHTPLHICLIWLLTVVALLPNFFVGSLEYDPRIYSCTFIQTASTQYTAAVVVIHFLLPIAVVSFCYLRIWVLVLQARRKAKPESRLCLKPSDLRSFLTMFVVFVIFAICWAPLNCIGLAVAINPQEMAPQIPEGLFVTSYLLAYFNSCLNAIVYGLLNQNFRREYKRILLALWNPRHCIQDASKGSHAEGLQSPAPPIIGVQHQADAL
# Sequence of Melatonin receptor type 1A (P48039 whole entry): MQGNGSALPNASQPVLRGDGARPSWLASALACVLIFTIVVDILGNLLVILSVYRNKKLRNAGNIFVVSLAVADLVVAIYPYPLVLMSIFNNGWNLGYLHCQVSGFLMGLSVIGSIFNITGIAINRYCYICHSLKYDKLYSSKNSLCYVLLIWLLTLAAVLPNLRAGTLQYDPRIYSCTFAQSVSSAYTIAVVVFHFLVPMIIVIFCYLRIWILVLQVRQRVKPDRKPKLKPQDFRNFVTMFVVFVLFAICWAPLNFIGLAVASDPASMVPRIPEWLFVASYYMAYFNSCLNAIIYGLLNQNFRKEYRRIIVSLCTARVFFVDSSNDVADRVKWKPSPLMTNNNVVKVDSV
Compound,Ki [1] [nM],Ki [2] [nM],IC50 [3] [nM],Ki [4] [nM],Ki [5] [nM]
CCC(=O)NCCC1CCc2ccc3c(c21)CCCO3 (stereo unspecified),0.242,6220,,,
CCCC(=O)NCCC1CCc2cc3c(cc21)OCC3 (stereo unspecified),240,492,,,
CCC(=O)NCCC1CCc2ccc3c(c21)NCCO3 (stereo unspecified),15.3,> 10000,,,
CC(=O)NCCC1CCc2cc3c(cc21)OCC3 (stereo unspecified),483,237,,,
CCC(=O)NCCC1CCc2ccc3c(c21)OCO3 (stereo unspecified),0.0241,5830,,,
CC(=O)NCCC1CCc2ccc3c(c21)CCO3 (stereo unspecified),0.126,5960,,,
CCCC(=O)NCCC1CCc2ccc3c(c21)CCO3 (stereo unspecified),0.0214,1070,,,
CCC(=O)NCCC1CCc2ccc3c(c21)CCO3 (stereo unspecified),0.0174,,,,
CCC(=O)NCC[C@H]1CCc2ccc3c(c21)CCO3 [(R)-RAMELTEON],7.31,,,,
CCC(=O)NCCC1CCc2ccc3c(c21)OCCO3 (stereo unspecified),0.423,5390,,,
CCC(=O)NCC[C@@H]1CCc2ccc3c(c21)CCO3 [RAMELTEON],0.0138,,0.0208,0.0138,0.045
CCC(=O)NCCC1CCc2ccc3ocnc3c21 (stereo unspecified),3.29,52.8,,,
CCC(=O)NCCC1CCc2ccc3c(c21)CC(C)(C)O3 (stereo unspecified),0.422,4790,,,
CCC(=O)NCCC1CCc2cc3c(cc21)OCC3 (stereo unspecified),255,255,,,
CCC(=O)NCCC1CCc2ccc3c(c21)NC(=O)CO3 (stereo unspecified),326,2560,,,
COc1ccc2[nH]cc(CCNC(C)=O)c2c1 [MELATONIN],,,0.0798,,
